Measured values reported in patent publication US9255295B2, “Method for evaluating the sensitizing potential of a test compound” (IMMUNOSEARCH, priority 2010, dated 2016).
Like-named read-outs stand apart in the source and are kept apart here.

Tested on: ARE gene family (AKR1B10, AKR1C1, AKR1C2, CYP1B1, FTH1P, FTL, G6PD, GCLM, NQO2, SLC7A11, TXNRD1, UGT1A1, UGT1A9, YWHAZ, CD36, CYP1A1, GCLC, HMOX1, NQO1, PSME2 …)
Settings: for AHR expression / AKR1B10 expression / AKR1C1 expression / AKR1C2 expression / CYP1A1 expression / CYP1B1 expression / FTH1P expression / FTL expression / GCLC expression / GCLM expression / HMOX1 expression / NQO1 expression / NQO2 expression / SLC7A11 expression / TXNRD1 expression / UGT1A1 expression / UGT1A9 expression: compared to the control

## O=CC=O [Glyoxal]
10%
  AHR NUMBER OF GENES grade: 0 (if this expression is lower, the grade is 0)
  AKR1B10 NUMBER OF GENES grade: 0 (if this expression is lower, the grade is 0)
  AKR1C1 NUMBER OF GENES grade: 0 (if this expression is lower, the grade is 0)
  AKR1C2 NUMBER OF GENES grade: 0 (if this expression is lower, the grade is 0)
  ARE >1.3 (number of genes): 3
  CD36 expression compared to control: 1.3
  CD36 grade (NUMBER OF GENES): 1 (If the expression is greater than 1.3 compared to the control, a grade of 11s given)
  CYP1A1 NUMBER OF GENES grade: 0 (if this expression is lower, the grade is 0)
  CYP1B1 NUMBER OF GENES grade: 0 (if this expression is lower, the grade is 0)
  FTH1P NUMBER OF GENES grade: 0 (if this expression is lower, the grade is 0)
  FTL NUMBER OF GENES grade: 0 (if this expression is lower, the grade is 0)
  GCLC NUMBER OF GENES grade: 0 (if this expression is lower, the grade is 0)
  GCLM NUMBER OF GENES grade: 1 (If the expression is greater than 1.3 compared to the control, a grade of 11s given)
  HMOX1 NUMBER OF GENES grade: 0 (if this expression is lower, the grade is 0)
  NQO1 NUMBER OF GENES grade: 0 (if this expression is lower, the grade is 0)
  NQO2 NUMBER OF GENES grade: 0 (if this expression is lower, the grade is 0)
  S100A8 expression compared to control: 0.9
  S100A8 grade (NUMBER OF GENES): 0 (if this expression is lower, the grade is 0)
  SLC7A11 NUMBER OF GENES grade: 1 (If the expression is greater than 1.3 compared to the control, a grade of 11s given)
  TOTAL ARE (number of genes): 3
  TXNRD1 NUMBER OF GENES grade: 1 (If the expression is greater than 1.3 compared to the control, a grade of 11s given)
  UGT1A1 NUMBER OF GENES grade: 0 (if this expression is lower, the grade is 0)
  UGT1A9 NUMBER OF GENES grade: 0 (if this expression is lower, the grade is 0)
  AHR expression: 1.0
  AKR1B10 expression: 0.7
  AKR1C1 expression: 1.0
  AKR1C2 expression: 1.2
  CYP1A1 expression: 0.0
  CYP1B1 expression: 0.8
  FTH1P expression: 1.1
  FTL expression: 1.1
  GCLC expression: 1.1
  GCLM expression: 1.7
  HMOX1 expression: 1.0
  NQO1 expression: 1.2
  NQO2 expression: 1.0
  SLC7A11 expression: 1.9
  TXNRD1 expression: 1.3
  UGT1A1 expression: 1.0
  UGT1A9 expression: 0.2
50%
  AHR NUMBER OF GENES grade: 0 (if this expression is lower, the grade is 0)
  AKR1B10 NUMBER OF GENES grade: 0 (if this expression is lower, the grade is 0)
  AKR1C1 NUMBER OF GENES grade: 0 (if this expression is lower, the grade is 0)
  AKR1C2 NUMBER OF GENES grade: 0 (if this expression is lower, the grade is 0)
  ARE >1.3 (number of genes): 6
  CD36 expression compared to control: 1.1
  CD36 grade (NUMBER OF GENES): 0 (if this expression is lower, the grade is 0)
  CYP1A1 NUMBER OF GENES grade: 0 (if this expression is lower, the grade is 0)
  CYP1B1 NUMBER OF GENES grade: 1 (If the expression is greater than 1.3 compared to the control, a grade of 11s given)
  FTH1P NUMBER OF GENES grade: 0 (if this expression is lower, the grade is 0)
  FTL NUMBER OF GENES grade: 0 (if this expression is lower, the grade is 0)
  GCLC NUMBER OF GENES grade: 0 (if this expression is lower, the grade is 0)
  GCLM NUMBER OF GENES grade: 1 (If the expression is greater than 1.3 compared to the control, a grade of 11s given)
  HMOX1 NUMBER OF GENES grade: 1 (If the expression is greater than 1.3 compared to the control, a grade of 11s given)
  NQO1 NUMBER OF GENES grade: 0 (if this expression is lower, the grade is 0)
  NQO2 NUMBER OF GENES grade: 0 (if this expression is lower, the grade is 0)
  S100A8 expression compared to control: 0.9
  S100A8 grade (NUMBER OF GENES): 0 (if this expression is lower, the grade is 0)
  SLC7A11 NUMBER OF GENES grade: 0 (if this expression is lower, the grade is 0)
  TOTAL ARE (number of genes): 6
  TXNRD1 NUMBER OF GENES grade: 1 (If the expression is greater than 1.3 compared to the control, a grade of 11s given)
  UGT1A1 NUMBER OF GENES grade: 1 (If the expression is greater than 1.3 compared to the control, a grade of 11s given)
  UGT1A9 NUMBER OF GENES grade: 1 (If the expression is greater than 1.3 compared to the control, a grade of 11s given)
  AHR expression: 0.9
  AKR1B10 expression: 0.8
  AKR1C1 expression: 0.8
  AKR1C2 expression: 0.9
  CYP1A1 expression: 1.1
  CYP1B1 expression: 3.3
  FTH1P expression: 0.9
  FTL expression: 0.9
  GCLC expression: 0.9
  GCLM expression: 1.5
  HMOX1 expression: 1.4
  NQO1 expression: 0.9
  NQO2 expression: 0.9
  SLC7A11 expression: 1.0
  TXNRD1 expression: 1.4
  UGT1A1 expression: 1.4
  UGT1A9 expression: 1.3
